Experimental data taken from the supplement of paper PMC13380429.

How the values were obtained:
Settings in all cases: 72 h
Caco-2 [1] = assay: relative viability EC50 (midpoint between 100% and the lowest measured viability); higher = less toxic
U2OS [2] = assay: as above
Vero E6 [3] = assay: as above
HepG2 [4] = assay: as above
Calu-3 [5] = assay: as above
Caco-2 [6] = assay: drug sensitivity score (DSS) for viability; higher = more toxic; extreme values may be limits of the assay
U2OS [7] = assay: as above
Vero E6 [8] = assay: as above
HepG2 [9] = assay: as above
Calu-3 [10] = assay: as above
Caco-2 [11] = assay: cell viability relative to DMSO; higher = less toxic
U2OS [12] = assay: as above
Vero E6 [13] = assay: as above
HepG2 [14] = assay: as above
Calu-3 [15] = assay: as above

Structure (SMILES) | relative viability EC50 (Caco-2 [1]) [nM] | relative viability EC50 (U2OS [2]) [nM] | relative viability EC50 (Vero E6 [3]) [nM] | relative viability EC50 (HepG2 [4]) [nM] | relative viability EC50 (Calu-3 [5]) [nM] | drug sensitivity score (Caco-2 [6]) | drug sensitivity score (U2OS [7]) | drug sensitivity score (Vero E6 [8]) | drug sensitivity score (HepG2 [9]) | drug sensitivity score (Calu-3 [10]) | cell viability (Caco-2 [11]; 1 nM) [%] | cell viability (Caco-2 [11]; 10 nM) [%] | cell viability (Caco-2 [11]; 100 nM) [%] | cell viability (Caco-2 [11]; 1000 nM) [%] | cell viability (Caco-2 [11]; 10000 nM) [%] | cell viability (U2OS [12]; 1 nM) [%] | cell viability (U2OS [12]; 10 nM) [%] | cell viability (U2OS [12]; 100 nM) [%] | cell viability (U2OS [12]; 1000 nM) [%] | cell viability (U2OS [12]; 10000 nM) [%] | cell viability (Vero E6 [13]; 1 nM) [%] | cell viability (Vero E6 [13]; 10 nM) [%] | cell viability (Vero E6 [13]; 100 nM) [%] | cell viability (Vero E6 [13]; 1000 nM) [%] | cell viability (Vero E6 [13]; 10000 nM) [%] | cell viability (HepG2 [14]; 1 nM) [%] | cell viability (HepG2 [14]; 10 nM) [%] | cell viability (HepG2 [14]; 100 nM) [%] | cell viability (HepG2 [14]; 1000 nM) [%] | cell viability (HepG2 [14]; 10000 nM) [%] | cell viability (Calu-3 [15]; 1 nM) [%] | cell viability (Calu-3 [15]; 10 nM) [%] | cell viability (Calu-3 [15]; 100 nM) [%] | cell viability (Calu-3 [15]; 1000 nM) [%] | cell viability (Calu-3 [15]; 10000 nM) [%]
COc1ccccc1CN[C@H]1CCCN[C@H]1c1ccccc1 | > 10000 | > 10000 | > 10000 | > 10000 | > 10000 | 0 | 0 | 0 | 0 | 0 | 107 | 92.7 | 109 | 98.9 | 104 | 99 | 94.6 | 96.2 | 93.1 | 97.4 | 101 | 103 | 98 | 105 | 92.1 | 94.2 | 103 | 91.1 | 99.6 | 94.2 | 93.7 | 93.6 | 93.7 | 104 | 98.7
Cc1cc2c(C(N)=O)cccc2n1-c1nc2c(c(NCc3ccccc3)n1)COCC2 [CB-5083] | 883 | 2120 | 338 | 360 | 940 | 10.8 | 7.7 | 17.6 | 17.3 | 11.9 | 97.8 | 92.8 | 103 | 50.1 | 13.6 | 100 | 102 | 98.4 | 87.1 | -0.3 | 98.8 | 103 | 102 | 1.1 | -0.4 | 107 | 95 | 104 | 2.8 | -0.2 | 101 | 94.3 | 104 | 47.1 | 1.7
